# US20190239509A1, “METHOD OF CONTROLLING PLANTS” (SYNGENTA PARTICIPATIONS AG, priority 2016, published 2019)
# Experiments:
# Assay type in all cases: in vivo
# [1] = test system: Euphorbia heterophylla (EPPHL); assay: B3 drilled field trial Brazil, post-emergence, EPPHL; settings: Summer season, 28 days after application
# Description: (§1) Seeds of a variety of test species were used in drilled field trials to look at the control of important weed species present in corn crops as well as the effect on soybean (a volunteer crop in corn). Trials were carried out in Brazil in the summer season and the second season.
# (§2) Plot size was 10-15 m^2, and two replicates were carried out per treatment. Plants were treated post-emergence between the 2 and 4 leaf stage. Species tested were Amaranthus retroflexus (AMARE), Ipomoea grandifolia (IAQGR), Digitaria horizontalis (DIGHO), Bidens pilosa (BIDPI), Eleusine indica (ELEIN), Brachiaria decumbens (BRADC), Centrus echinatus (CCHEC), Euphorbia heterophylla (EPPHL), Brachiaria plantaginea (BRAPL) and Glycine max (GLXMA; soybean). Fungicides and insecticides were used as necessary for plant health. The test was evaluated at 28 days after application with 100=total damage to plant and 0=no damage to plant.
# (§3) Expected results were calculated using the Colby Formula.
# [2] = test system: Euphorbia heterophylla (EPPHL); assay: B2 drilled field trial Brazil, post-emergence, EPPHL; settings: 100=total damage, 0=no damage; for EPPHL 7DAA Observed: 7 days after application; for EPPHL 30 DAA Observed: 30 days after application
# Description: (§4) Seeds of a variety of test species were used in drilled field trials to look at the control of important weed species present in corn crops as well as the effect on soybean (a volunteer crop in corn). Trials were carried out in Brazil in the summer season.
# (§5) Plot size was 10-12 m^2, and two replicates were carried out per treatment. Plants were treated post-emergence at the 4 leaf stage. Fungicides and insecticides were used as necessary for plant health. The test was evaluated at 7 and 30 days after application (Amaranthus viridis (AMAVI), Bidens pilosa (BIDPI), Euphorbia heterophylla (EPPHL)) and 9 and 37 days after application (Brachiaria plantaginea (BRAPL) and soybean (Glycine max GLXMA) with 100=total damage to plant and 0=no damage to plant.
# as §3
# [3] = test system: Eleusine indica (ELEIN); assay: B3 drilled field trial Brazil, post-emergence, ELEIN; settings: 28 days after application
# Description: as §1, §2, §3
# [4] = test system: Ipomoea grandifolia (IAQGR); assay: B3 drilled field trial Brazil, post-emergence, IAQGR; settings: 28 days after application
# Description: as §1, §2, §3
# [5] = test system: Amaranthus retroflexus (AMARE); assay: B3 drilled field trial Brazil, post-emergence, AMARE; settings: 28 days after application, 100=total damage, 0=no damage
# Description: as §1, §2, §3
# [6] = test system: Amaranthus viridis (AMAVI); assay: B2 drilled field trial Brazil, post-emergence, AMAVI; settings: 100=total damage, 0=no damage; for AMAVI 7DAA Observed: 7 days after application; for AMAVI 30 DAA Observed: 30 days after application
# Description: as §4, §5, §3
# [7] = test system: Brachiaria plantaginea (BRAPL); assay: B2 drilled field trial Brazil, post-emergence, BRAPL; settings: 100=total damage, 0=no damage; for BRAPL 9DAA Observed: 9 days after application; for BRAPL 37 DAA Observed: 37 days after application
# Description: as §4, §5, §3
# [8] = test system: Digitaria horizontalis (DIGHO); assay: B3 drilled field trial Brazil, post-emergence, DIGHO; settings: 28 days after application
# Description: as §1, §2, §3
compound,measurement,setting,value
CCOC1C(O)N(c2cc(C(C)(C)C)on2)C(=O)N1C (stereo not drawn) [Compound 1.4],"Observed damage (100=total damage to plant, 0=no damage)",[1]; 50 g ai/ha,38
same,"Observed damage (100=total damage to plant, 0=no damage)",[1]; 75 g ai/ha,58
same,"Observed damage (100=total damage to plant, 0=no damage)",[1]; 100 g ai/ha,46
same,"Observed damage (100=total damage to plant, 0=no damage)",[1]; 150 g ai/ha,52
same,EPPHL 7DAA Observed,[2]; 75 g ai/ha,25
same,EPPHL 30 DAA Observed,[2]; 75 g ai/ha,18
same,EPPHL 7DAA Observed,[2]; 100 g ai/ha,30
same,EPPHL 30 DAA Observed,[2]; 100 g ai/ha,25
same,EPPHL 7DAA Observed,[2]; 150 g ai/ha,48
same,EPPHL 30 DAA Observed,[2]; 150 g ai/ha,25
same,"Observed damage (100=total damage to plant, 0=no damage)","[3]; Second season, 50 g ai/ha",8
same,"Observed damage (100=total damage to plant, 0=no damage)","[3]; Second season, 75 g ai/ha",11
same,"Observed damage (100=total damage to plant, 0=no damage)","[3]; Second season, 100 g ai/ha",11
same,"Observed damage (100=total damage to plant, 0=no damage)","[3]; Second season, 150 g ai/ha",14
same,"Observed damage (100=total damage to plant, 0=no damage)","[3]; Summer season, 50 g ai/ha",18
same,"Observed damage (100=total damage to plant, 0=no damage)","[3]; Summer season, 75 g ai/ha",25
same,"Observed damage (100=total damage to plant, 0=no damage)","[3]; Summer season, 100 g ai/ha",33
same,"Observed damage (100=total damage to plant, 0=no damage)","[3]; Summer season, 150 g ai/ha",53
same,"Observed damage (100=total damage to plant, 0=no damage)","[4]; Second season, 50 g ai/ha",0
same,"Observed damage (100=total damage to plant, 0=no damage)","[4]; Second season, 75 g ai/ha",3
same,"Observed damage (100=total damage to plant, 0=no damage)","[4]; Second season, 100 g ai/ha",36
same,"Observed damage (100=total damage to plant, 0=no damage)","[4]; Second season, 150 g ai/ha",69
same,"Observed damage (100=total damage to plant, 0=no damage)","[4]; Summer season, 50 g ai/ha",33
same,"Observed damage (100=total damage to plant, 0=no damage)","[4]; Summer season, 75 g ai/ha",38
same,"Observed damage (100=total damage to plant, 0=no damage)","[4]; Summer season, 100 g ai/ha",68
same,"Observed damage (100=total damage to plant, 0=no damage)","[4]; Summer season, 150 g ai/ha",100
same,AMARE Second season Observed,[5]; 50 g ai/ha,12
same,AMARE Summer season Observed,[5]; 50 g ai/ha,73
same,AMARE Second season Observed,[5]; 75 g ai/ha,14
same,AMARE Summer season Observed,[5]; 75 g ai/ha,80
same,AMARE Second season Observed,[5]; 100 g ai/ha,39
same,AMARE Summer season Observed,[5]; 100 g ai/ha,90
same,AMARE Second season Observed,[5]; 150 g ai/ha,52
same,AMARE Summer season Observed,[5]; 150 g ai/ha,100
same,AMAVI 7DAA Observed,[6]; 75 g ai/ha,10
same,AMAVI 30 DAA Observed,[6]; 75 g ai/ha,13
same,AMAVI 7DAA Observed,[6]; 100 g ai/ha,20
same,AMAVI 30 DAA Observed,[6]; 100 g ai/ha,20
same,AMAVI 7DAA Observed,[6]; 150 g ai/ha,40
same,AMAVI 30 DAA Observed,[6]; 150 g ai/ha,40
same,BRAPL 9DAA Observed,[7]; 75 g ai/ha,18
same,BRAPL 37 DAA Observed,[7]; 75 g ai/ha,0
same,BRAPL 9DAA Observed,[7]; 100 g ai/ha,15
same,BRAPL 37 DAA Observed,[7]; 100 g ai/ha,0
same,BRAPL 9DAA Observed,[7]; 150 g ai/ha,23
same,BRAPL 37 DAA Observed,[7]; 150 g ai/ha,0
same,"Observed damage (100=total damage to plant, 0=no damage)","[8]; Second season, 50 g ai/ha",0
same,"Observed damage (100=total damage to plant, 0=no damage)","[8]; Second season, 75 g ai/ha",0
same,"Observed damage (100=total damage to plant, 0=no damage)","[8]; Second season, 100 g ai/ha",0
same,"Observed damage (100=total damage to plant, 0=no damage)","[8]; Second season, 150 g ai/ha",0
same,"Observed damage (100=total damage to plant, 0=no damage)","[8]; Summer season, 50 g ai/ha",23
